Assay results as given in paper PMC8307506, “Identification of Dihydromyricetin and Metabolites in Serum and Brain Associated with Acute Anti-Ethanol Intoxicating Effects in Mice” (International Journal of Molecular Sciences, 2021).
Like-named read-outs stand apart in the source and are kept apart here.

Key:
[1] = Serum pharmacokinetics of DHM after PO and IP administration; assay type: in vivo, mice; settings: for Tmax / half-life / Cmax / AUC(0-t): C57BL/6J, mouse, serum; for half-life: read-out: Serum T1/2 (converted); for IP AUC0→24 relative to PO AUC0→24: DHM 50 mg/kg; for Cmax / AUC(0-t): 50 mg/kg; for AUC(0-t): read-out: Serum AUC0→24
Experimental: Eight-week-old male and female C57BL/6J mice (Jackson’s Laboratories, Bar Harbor, ME, USA) were housed 4 mice to a cage (separated by sex) and maintained on 12-h light, 12-h dark cycles (lights on at 0700 h) in the animal facility at the Department of Animal Sciences, Rutgers University. Following 1-week acclimation, animals were given ad libitum access to water and a polyphenol-free diet (PFD; 3.82 kcal/g, 10% fat, 20% protein, 70% carbohydrate; D12450H; Research Diets, Inc., New Brunswick, NJ, USA) for at least 10 days. For PK studies, after an overnight fast, mice were administered 50 mg/kg DHM (dissolved in 0.9% saline with 10% DMSO) by either IP injection or oral gavage. Oral gavage was performed using single-use, sterile plastic feeding tubes for mice (20 ga × 30 mm; cat# FTP-20-30, Instech Laboratories, (Plymouth Meeting, PA, USA). Mice were deeply anesthetized with 5% isoflurane mixed with oxygen, and blood was collected by cardiac puncture. Following cardiac puncture, animals were exsanguinated and transcardial perfusion with 0.9% saline was performed to ensure blood removal from the brain tissue. Blood and brain samples were collected from a total of 85 mice at 0.25, 0.75, 1.5, 3, 6, 12, 24 h (3–4 mice for each sex and timepoint). Tissues were immediately homogenized with 0.2% formic acid at 1:2 (w/v), and frozen at −80 °C until analysis. Blood was centrifuged at 3000× g for 10 min at 4 °C to isolate serum. For efficacy studies, mice (n = 8/sex) were fasted at 5 h prior to Ethanol gavage 5 g/kg (37% Ethanol in water). DHM 50 mg/kg IP (dissolved in 0.9% saline with 10% DMSO) was administered at 0, 15, 45, 90 and 180 min prior to Ethanol oral gavage. Each mouse was tested at each time point 7 days apart over 6-week period. At the time of Ethanol gavage, mice were placed in oversized conical holders (L: 152 mm X W: 37 mm) and observed for ability to return upright upon being placed in a supine position. Duration of LORR was determined by ability to return upright 3 times within 30 s. To determine whether ethanol-induced tolerance developed, one week (Week 1; Baseline) prior to the 6-week repeated DHM dosing study all mice were oral dose with ethanol (5 g/kg) without any IP injection and LORR was measured. Mice were then re-tested in a similar fashion with oral ethanol 1 week after the DHM 6-week period (Week 8; Post). […] All animal studies were approved by the Institutional Animal Care and Use Committee of Rutgers University (Bello; PROTO999900014, OLAW #A3262-01, 15 March 2017) and complied with NIH Guide for the Care and Use of Laboratory Animals.
All serum samples were stored at −80 °C and conditioned to room temperature prior to analysis. An aliquot of 100 µL of serum, 20 µL 4M HCl, and 50 µL of internal standard (IS) solution (417 ng/mL isoquercetin in EtOAc) were combined in an Eppendorf tube. An aliquot of 500 µL of EtOAc was added and samples were vortexed for 30 s. Samples were then centrifuged at 3000× g for 2 min and the supernatant transferred to a glass vial. Samples were extracted 2 more times with EtOAc and the supernatant added to the corresponding vial containing 10 µL of 2% ascorbic acid in methanol (MeOH). Samples were then dried under vacuum, reconstituted with 100 µL of 45% MeOH in water with 0.1% formic acid (FA), centrifuged at 16,000× g for 10 min and transferred to an HPLC vial for analysis.
An Agilent 1290 Infinity II UPLC system interfaced with an Agilent 6470 Triple Quadrupole Mass Spectrometer with an electrospray ionization source (Agilent Technology, Palo Alto, CA, USA) was used for sample analysis. An Waters Acquity UPLC BEH C8 column (2.1 × 150 mm, 1.7 μm) (Milford, MA, USA) column with a VanGuard Acquity C8 guard column (2.1 × 5 mm, 1.7 μm) (Milford, MA, USA) was used for chromatographic separation. The binary mobile phases consisted of water with 0.1% FA (phase A) and acetonitrile (ACN) with 0.1% formic acid (phase B). The flow rate was set at 0.450 mL/min. […]

[2] = design: method as in PMID 27951743; settings: rats; cited from earlier work
[3] = female, ip, female mice, DHM 50 mg/kg IP
[4] = female, ip, female mice, DHM 50 mg/kg IP, mean ± SEM
[5] = female, po, female mice, DHM 50 mg/kg PO
[6] = female, po, female mice, DHM 50 mg/kg PO, mean ± SEM
[7] = male, ip, male mice, DHM 50 mg/kg IP
[8] = male, ip, male mice, DHM 50 mg/kg IP, mean ± SEM
[9] = male, po, male mice, DHM 50 mg/kg PO
[10] = male, po, male mice, DHM 50 mg/kg PO, mean ± SEM

- Tmax ([1]; female mice, DHM 50 mg/kg IP): 15 min
- half-life ([1]; female mice, DHM 50 mg/kg IP): 45.6 min
- Tmax ([1]; female mice, DHM 50 mg/kg PO): 15 min
- half-life ([1]; female mice, DHM 50 mg/kg PO): 110 min
- Tmax ([1]; male mice, DHM 50 mg/kg IP): 15 min
- half-life ([1]; male mice, DHM 50 mg/kg IP): 95.4 min
- Tmax ([1]; male mice, DHM 50 mg/kg PO): 15 min
- half-life ([1]; male mice, DHM 50 mg/kg PO): 115 min
- PO exposure levels in male mice relative to female mice ([1]; DHM 50 mg/kg PO): 3.5 times
- IP AUC0→24 relative to PO AUC0→24 ([1]; female mice): 23.8 fold
- Serum AUC0→24 ([1]; female mice, DHM 50 mg/kg PO): 0.7 µM·h
- IP AUC0→24 relative to PO AUC0→24 ([1]; female mice, listed as dihydromyricetin): 7.2 fold
- Cmax [1, 3]: 23.8 µM
- Cmax [1, 4]: 23.8 µM
- AUC(0-t) [1, 4]: 17.4 µM·h
- AUC(0-t) [1, 3]: 17.3 µM·h
- Cmax [1, 5]: 0.62 µM
- Cmax [1, 6]: 0.623 ± 0.159 µM
- AUC(0-t) [1, 6]: 0.728 ± 0.461 µM·h
- AUC(0-t) [1, 5]: 0.728 µM·h
- IP AUC0→24 relative to PO AUC0→24 ([1]; male mice): 7.2 fold
- Serum AUC0→24 ([1]; male mice, DHM 50 mg/kg PO): 2.5 µM·h
- IP AUC0→24 relative to PO AUC0→24 ([1]; male mice, listed as dihydromyricetin): 23.8 fold
- Cmax [1, 7]: 38.3 µM
- Cmax [1, 8]: 38.3 µM
- AUC(0-t) [1, 8]: 18.1 µM·h
- AUC(0-t) [1, 7]: 18.1 µM·h
- Cmax [1, 9]: 1.9 µM
- Cmax [1, 10]: 1.89 ± 0.59 µM
- AUC(0-t) [1, 10]: 2.51 ± 0.988 µM·h
- AUC(0-t) [1, 9]: 2.51 µM·h
SMILES: O=C1c2c(O)cc(O)cc2O[C@H](c2cc(O)c(O)c(O)c2)[C@H]1O [DHM, Dihydromyricetin]
- oral absolute bioavailability [2]: 4.02%
